# According to PMC6112376, “Comprehensive Analyses and Prioritization of Tox21 10K Chemicals Affecting Mitochondrial Function by in-Depth Mechanistic Studies” (Environmental Health Perspectives, 2018):
# Where two headings read alike, the source gives them in different places.
# What was measured:
# [1] = test system: hNSC; test: MMP assay in human neural stem cells (hNSC); type: cell-based; conditions: mean±SD of three experiments
# [2] = test system: mitochondrial respiratory chain complex IV; type: biochemical, rat
# [3] = molecular target: T1, mitochondrial respiratory chain complex II (Rattus norvegicus, UniProt P21913+Q641Z9+Q6PCT8+Q920L2); test: Respiratory chain complex II activity; type: biochemical; conditions: at 100μM; mean±SD of three experiments
# T1 construct: Submitochondrial particles were prepared by subjecting the intact rat mitochondria, isolated as described above, to three successive freeze–thaw cycles; from tissue; host or cells: rat liver mitochondria (submitochondrial particles)
# T1 sequence (Q920L2 35-656): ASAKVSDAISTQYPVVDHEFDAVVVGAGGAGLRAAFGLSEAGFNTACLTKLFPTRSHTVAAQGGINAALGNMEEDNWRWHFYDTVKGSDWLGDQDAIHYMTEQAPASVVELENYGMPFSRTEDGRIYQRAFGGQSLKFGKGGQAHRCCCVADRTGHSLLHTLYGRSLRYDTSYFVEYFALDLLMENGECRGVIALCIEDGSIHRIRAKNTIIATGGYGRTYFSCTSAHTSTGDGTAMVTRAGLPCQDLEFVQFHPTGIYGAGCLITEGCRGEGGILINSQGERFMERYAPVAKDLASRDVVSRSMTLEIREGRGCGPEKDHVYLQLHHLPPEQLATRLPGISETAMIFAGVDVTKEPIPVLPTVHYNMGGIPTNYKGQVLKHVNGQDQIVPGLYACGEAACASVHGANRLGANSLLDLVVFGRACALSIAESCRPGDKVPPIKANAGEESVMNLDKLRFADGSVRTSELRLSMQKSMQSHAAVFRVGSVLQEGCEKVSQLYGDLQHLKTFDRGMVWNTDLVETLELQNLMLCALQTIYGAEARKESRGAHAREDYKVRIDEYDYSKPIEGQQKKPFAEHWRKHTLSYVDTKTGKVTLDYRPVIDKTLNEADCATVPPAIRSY
# T1 sequence (P21913 31-282): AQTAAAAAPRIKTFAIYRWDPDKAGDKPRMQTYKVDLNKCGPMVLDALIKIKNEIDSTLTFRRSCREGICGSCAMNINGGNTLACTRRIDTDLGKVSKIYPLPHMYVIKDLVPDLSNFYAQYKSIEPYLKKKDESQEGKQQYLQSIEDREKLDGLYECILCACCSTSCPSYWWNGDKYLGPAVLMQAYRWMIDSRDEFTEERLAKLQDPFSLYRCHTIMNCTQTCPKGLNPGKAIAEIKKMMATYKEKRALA
# T1 sequence (Q641Z9 1-169): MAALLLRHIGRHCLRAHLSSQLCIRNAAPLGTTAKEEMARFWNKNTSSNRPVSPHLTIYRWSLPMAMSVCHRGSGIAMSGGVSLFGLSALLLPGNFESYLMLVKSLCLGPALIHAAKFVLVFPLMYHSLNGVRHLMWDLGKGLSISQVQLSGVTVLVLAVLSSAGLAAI
# T1 sequence (Q6PCT8 57-159): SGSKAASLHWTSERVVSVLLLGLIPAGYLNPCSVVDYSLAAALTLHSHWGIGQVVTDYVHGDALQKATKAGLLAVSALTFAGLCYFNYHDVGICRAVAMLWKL
# [4] = test system: Caenorhabditis elegans strain PE255; test: In vivo C. elegans ATP status assay
# [5] = test system: Nrf2/ARE (ARE-bla HepG2 cells); test: ARE β-lactamase reporter gene assay; type: cell-based, human
# [6] = test system: isolated rat liver mitochondria; test: Oxygen consumption, Clark-type oxygen electrode; type: biochemical; conditions: for I-ADP, % of control (O2 consumption rate): glutamate/malate driven state 3 respiration; for I-ADP, % of control (O2 consumption rate) / I-sub, % of control (O2 consumption rate) / II-ADP, % of control (O2 consumption rate) / II-sub, % of control (O2 consumption rate): isolated rat liver mitochondria; for I-sub, % of control (O2 consumption rate): glutamate/malate driven state 4 respiration; for II-ADP, % of control (O2 consumption rate): succinate-driven state 3 respiration; for II-sub, % of control (O2 consumption rate): succinate-driven state 4 respiration
# [7] = test system: HepG2 cells; test: Intracellular ATP content (cell viability) assay; type: cell-based, human; conditions: for IC50: 40 h treatment, mean±SD of three experiments
# [8] = test system: HepG2 cells; test: Oxygen consumption, Seahorse XF24 analyzer; type: cell-based, human; conditions: Seahorse XF24; HepG2 cells; 25 mM glucose; 1, 4, 16, and 64μM
# [9] = test system: HepG2 cells
# [10] = test system: rat primary hepatocytes; test: MMP assay in rat primary hepatocytes
# [11] = test system: p53 (p53-bla HCT-116 cells); test: p53 β-lactamase reporter gene assay; type: cell-based, human; conditions: 16 h incubation; mean±SD of three experiments
# [12] = test system: mitochondrial respiratory chain complex I; type: biochemical, rat; conditions: at 100μM
# [13] = test system: HeLa cells expressing YFP-Parkin; test: Parkin translocation assay; type: cell-based, human; conditions: HeLa cells stably expressing YFP-Parkin; treated for 2 h
# [14] = test system: HepG2 cells; test: ROS-Glo hydrogen peroxide (ROS) assay; type: cell-based, human; conditions: 2 h treatment; mean±SD of three experiments
# [15] = test system: mitochondrial respiratory chain complex V; type: biochemical, rat
# [16] = test system: Caenorhabditis elegans (Bristol N2); test: C. elegans larval development and growth assay
# [17] = test system: mitochondrial respiratory chain complex III; type: biochemical, rat; conditions: at 100μM
# [18] = test system: HepG2 cells; conditions: cited from earlier work
smiles,measurement,setting,value
Cl.N=C1C=CC(=C(c2ccc(N)cc2)c2ccc(N)cc2)C=C1 [C.I. Basic red 9 monohydrochloride],IC50,"[1]; 1 h treatment, fresh re-sourced stocks, read-out: hNSC IC50 (MMP)",2.55 ± 0.58 µM
same,hNSC (efficacy) (MMP),[1]; % of positive control,−70.3±7.17%
same,Complex IV % inhibition (activity call),[2],Inactive
same,Complex II % inhibition,[3],12.2±3.48 at 100μM %
same,LUM: mean difference in luminescence (ATP content) relative to plate controls,[4]; 0.5 µM,0.1703
same,LUM: mean difference in luminescence (ATP content) relative to plate controls,[4]; 1 µM,0.2203
same,LUM: mean difference in luminescence (ATP content) relative to plate controls,[4]; 5 µM,0.7285
same,LUM: mean difference in luminescence (ATP content) relative to plate controls,[4]; 10 µM,0.8296
same,LUM: mean difference in luminescence (ATP content) relative to plate controls,[4]; 25 µM,1.533
same,LUM: mean difference in luminescence (ATP content) relative to plate controls,[4]; 50 µM,2.0258
same,LUM: mean difference in luminescence (ATP content) relative to plate controls,[4]; 75 µM,2.358
same,LUM: mean difference in luminescence (ATP content) relative to plate controls,[4]; 100 µM,2.677
same,"LEC (lowest effect concentration), ATP assay",[4]; 24 h exposure,≤ 10 µM
same,"LEC LUM: lowest effect concentration for luminescence, a measure of nematode ATP content","[4]; C. elegans ATP, JT trend test, Bonferoni correction p<0.05",5 µM
same,EC50,"[5]; 16 h incubation, mean±SD of three experiments, read-out: ARE (HepG2) EC50",11.7 ± 7.37 µM
same,ARE (HepG2) (efficacy),[5]; % of positive control,107±42.3%
same,"I-ADP, % of control (O2 consumption rate)",[6]; 0.8 µM,94 (41.0) % of control
same,"I-sub, % of control (O2 consumption rate)",[6]; 0.8 µM,100 (13.1) % of control
same,"II-ADP, % of control (O2 consumption rate)",[6]; 0.8 µM,97 (65.8) % of control
same,"II-sub, % of control (O2 consumption rate)",[6]; 0.8 µM,96 (20.1) % of control
same,"I-ADP, % of control (O2 consumption rate)",[6]; 4 µM,82 (35.8) % of control
same,"I-sub, % of control (O2 consumption rate)",[6]; 4 µM,92 (12.1) % of control
same,"II-ADP, % of control (O2 consumption rate)",[6]; 4 µM,93 (63.1) % of control
same,"II-sub, % of control (O2 consumption rate)",[6]; 4 µM,101 (21.1) % of control
same,"I-ADP, % of control (O2 consumption rate)",[6]; 20 µM,64 (27.9) % of control
same,"I-sub, % of control (O2 consumption rate)",[6]; 20 µM,106 (13.9) % of control
same,"II-ADP, % of control (O2 consumption rate)",[6]; 20 µM,66 (44.4) % of control
same,"II-sub, % of control (O2 consumption rate)",[6]; 20 µM,110 (22.9) % of control
same,"I-ADP, % of control (O2 consumption rate)",[6]; 100 µM,17 (9.1) % of control
same,"I-sub, % of control (O2 consumption rate)",[6]; 100 µM,94 (12.7) % of control
same,"II-ADP, % of control (O2 consumption rate)",[6]; 100 µM,31 (21.0) % of control
same,"II-sub, % of control (O2 consumption rate)",[6]; 100 µM,96 (20.8) % of control
same,effect on mitochondrial respiration (in words),"[6]; Clark-type oxygen electrode, concentrations up to 100μM","moderate inhibitory effect on state 3 respiration driven by both glutamate/malate and succinate, but not on state 4 respiration"
same,Potential Mechanism,"[6]; mitochondrial respiration in isolated rat liver mitochondria, Clark type oxygen electrode, over tested concentrations",Inhibitor
same,IC50,"[7]; 5 mM glucose, read-out: ATP (HepG2, glucose) IC50",9.72 ± 5.01 µM
same,"ATP (HepG2, glucose) (efficacy)","[7]; 5 mM glucose, % of positive control",−101±8.17%
same,IC50,"[7]; 10 mM galactose, read-out: ATP (HepG2, galactose) IC50",6.25 ± 2.01 µM
same,"ATP (HepG2, galactose) (efficacy)","[7]; 10 mM galactose, % of positive control",−98.4±12.9%
same,Activity in oxygen consumption,[8],Inhibitor
same,HepG2 (efficacy) Glucose (MMP),"[9]; 5 mM glucose, % of positive control, mean±SD of three experiments",−97.1±6.48%
same,HepG2 (efficacy) Galactose (MMP),"[9]; 10 mM galactose, % of positive control, mean±SD of three experiments",−89.4±4.30%
same,MMP assays efficacy (%) HepG2,"[9]; HepG2 cells, single number from one experiment",-94%
same,IC50,"[9]; read-out: HepG2 IC50 Galactose (MMP), 10 mM galactose, no glucose, 1 h treatment, mean±SD of three experiments",2.53 ± 0.46 µM
same,IC50,"[9]; read-out: HepG2 IC50 Glucose (MMP), 5 mM glucose, 1 h treatment, fresh re-sourced stocks, mean±SD of three experiments",1.66 ± 0.28 µM
same,IC50,"[9]; read-out: MMP assays IC50 (µM) HepG2, HepG2 cells, single number from one experiment",0.56 µM
same,Rat hepatocytes (efficacy) (MMP),"[10]; % of positive control, mean±SD of three experiments",−90.3±2.77%
same,MMP assays efficacy (%) Rat Hepatocytes,"[10]; rat hepatocytes, mean ± SD of three experiments",-96±23%
same,IC50,"[10]; read-out: MMP assays IC50 (µM) Rat Hepatocytes, rat hepatocytes, mean ± SD of three experiments",4.11 ± 4.24 µM
same,IC50,"[10]; read-out: Rat hepatocytes IC50 (MMP), 1 h treatment, fresh re-sourced stocks, mean±SD of three experiments",6.3 ± 0.43 µM
same,p53 (HCT-116) EC50,[11],Inactive
same,Complex I % inhibition,[12],14.1±2.98 at 100μM %
same,Parkin recruitment,[13],Inactive
same,ROS (HepG2) EC50,[14],Inactive
same,Complex V % inhibition (activity call),[15],Inactive
same,EXT: mean difference in nematode size relative to plate controls,[16]; 0.5 µM,0.03177
same,EXT: mean difference in nematode size relative to plate controls,[16]; 1 µM,-0.03542
same,EXT: mean difference in nematode size relative to plate controls,[16]; 5 µM,0.06311
same,EXT: mean difference in nematode size relative to plate controls,[16]; 10 µM,0.04374
same,EXT: mean difference in nematode size relative to plate controls,[16]; 25 µM,0.1555
same,EXT: mean difference in nematode size relative to plate controls,[16]; 50 µM,0.3061
same,EXT: mean difference in nematode size relative to plate controls,[16]; 75 µM,1.032
same,EXT: mean difference in nematode size relative to plate controls,[16]; 100 µM,1.117
same,"LEC EXT: lowest effect concentration for extinction, a measure of nematode size","[16]; C. elegans larval growth, JT trend test, Bonferoni correction p<0.05",50 µM
same,Complex III % inhibition,[17],21.6±6.41 at 100μM %
same,MMP assays efficacy (%) qHTS-HepG2,[18],-95±11%
same,IC50,[18]; read-out: MMP assays IC50 (µM) qHTS-HepG2,0.08 ± 0.02 µM
